According to patent US7268157B2, “Substituted arylalcanoic acid derivatives as PPAR pan agonists with potent antihyperglycemic and antihyperlipidemic activity” (Shenzhen Chipscreen Biosciences, Ltd., priority 2002, dated 2007):

What was measured:
obese rat = test: Blood triglyceride and cholesterol in experimental obese rats; format: in vivo; details: 13-day treatment
[1] = Body weight and abdomen fat weight in experimental obese rats; format: in vivo, rat; details: for Abdomen Fat Weight: 15-day treatment

For `O=C(c1ccc(F)cc1)c1ccccc1NC(Cc1ccc(OCCn2c3ccccc3c3ccccc32)cc1)C(=O)O` (stereo not shown) [CS-038, 2-[(2-(4-fluorobenzoyl)phenyl)amino]-3-[4-(2-carbazolylethoxy)-phenyl]-propionic acid], which Cholesterol (obese rat; 4 mg/kg) is on record?
Its Cholesterol is 98.4 ± 29.4 mg/dL.

What about the Triglyceride (obese rat; 4 mg/kg) of the same compound?
The Triglyceride was 150.3 ± 52.1 mg/dL.

And the Cholesterol (obese rat; 30 mg/kg)?
Its Cholesterol is 86.6 ± 37.7 mg/dL.

And the Triglyceride (obese rat; 30 mg/kg)?
The Triglyceride was 143.2 ± 61.8 mg/dL.

What about the “Body Weight” value ([1]; 4 mg/kg, 0 day) of the same compound?
Its value is 591.5 ± 130.0 g.

What about the “Abdomen Fat Weight” value ([1]; 4 mg/kg) of the same compound?
Its value is 55.8 ± 16.8 g.

What about the “Body Weight” value ([1]; 4 mg/kg, 6 days) of the same compound?
The value was 580.8 ± 130.2 g.

And the “Body Weight” value ([1]; 4 mg/kg, 9 days)?
Its value is 575.2 ± 130.6 g.

What about the “Body Weight” value ([1]; 4 mg/kg, 15 days) of the same compound?
The value was 569.4 ± 122.9 g.

And the “Body Weight” value ([1]; 30 mg/kg, 0 day)?
Its value is 580.5 ± 134.9 g.

What about the “Abdomen Fat Weight” value ([1]; 30 mg/kg) of the same compound?
Its value is 56.6 ± 21.1 g.

What about the “Body Weight” value ([1]; 30 mg/kg, 6 days) of the same compound?
The value was 586.1 ± 143.2 g.

And the “Body Weight” value ([1]; 30 mg/kg, 9 days)?
The value was 586.5 ± 144.2 g.

What about the “Body Weight” value ([1]; 30 mg/kg, 15 days) of the same compound?
Its value is 578.3 ± 176.8 g.

And the “body weight and abdomen fat increases” value ([1]; after 15-day drug treatment)?
The value was “does not induce body weight and abdomen fat increases”.

Which Cholesterol (obese rat; 4 mg/kg) does the source give for `CN(CCOc1ccc(CC2SC(=O)NC2=O)cc1)c1ccccn1` (stereo not shown) [Rosiglitazone, reference compound] here?
Its Cholesterol is 112.7 ± 25.5 mg/dL.

What about the Triglyceride (obese rat; 4 mg/kg) of the same compound?
Its Triglyceride is 273.3 ± 87.4 mg/dL.

And the “Body Weight” value ([1]; 4 mg/kg, 0 day)?
Its value is 594.9 ± 169.3 g.

And the “Abdomen Fat Weight” value ([1]; 4 mg/kg)?
Its value is 63.1 ± 31.4 g.

What about the “Body Weight” value ([1]; 4 mg/kg, 6 days) of the same compound?
The value was 604.5 ± 181.4 g.

And the “Body Weight” value ([1]; 4 mg/kg, 9 days)?
The value was 601.6 ± 183.9 g.

What about the “Body Weight” value ([1]; 4 mg/kg, 15 days) of the same compound?
The value was 596.4 ± 176.8 g.
